{"source": "patent US8367733B2", "about": "(Vallinex, Inc., priority 2002, dated 2013)", "key": {"[1]": {"details": "more potent than capsaicin; cited from earlier work"}, "[2]": {"system": "subjects with osteoarthritis of the knee", "test": "Osteoarthritis of the knee safety study (Phase 1): safety, tolerability and VAS pain after intra-articular infiltration", "assay_type": "in vivo, human", "details": "for patients reporting transient burning pain immediately following instillation: after 2% lignocaine", "protocol": "The primary objective of the study was to evaluate the safety and tolerability of intra-articular capsaicin, when co-administered with intra-articular local anesthetic, compared to placebo, in subjects with end-stage osteoarthritis of the knee, already scheduled to receive knee replacements.\nStudy drug was stored at a temperature between 15° C. and 25° C.\nThe study was designed to include 16 evaluation subjects. […] Sixteen subjects completed the study.\nPatients were treated randomly and in double-blind fashion in four treatment cohorts, with each cohort having a progressively longer interval between the intra-articular administration of study medication and subsequent total knee replacement (2, 4, 7, and 14 days). […] Gross and microscopic pathology analysis was completed for each treatment cohort before the next treatment coort was treated.\nEach subject had 3 study visits: a Screening Day (Day −7 to −1), the Treatment Day (Day 0), and a Post-Treatment Day (scheduled for Day +2, +4, +7, or +14). On the Treatment Day the subject was randomized, pre-treatment evaluation was performed. The patients were brought into the procedure room, and a VAS pain score was taken (0 mm—no pain, 100 mm—extreme pain). Once the patient had marked his or her pain on the card, he/she was prepped for knee cannulation. Once the cannula was placed, the patient received by intra-articular infiltration, 3 mg/kg (maximum dose of 200 mg) of 2% lignocaine into the knee scheduled to be replaced.\nVAS pain scores as well as verbal reports were taken immediately following administration, as well as prior to knee replacement surgery. No subjects discontinued from the study due to adverse events.\nOn the Post-Treatment Day, study evaluation was performed followed by the scheduled knee replacement, with intra-operative bone and soft tissue biopsies performed for subsequent examination. […] This therefore left the 3 placebo and 9 active patients from the 4 day, 7 day, and 14 day cohorts."}, "[3]": {"system": "radiation induced hyperalgesia", "details": "systemic, cited from earlier work"}, "[4]": {"details": "cited from earlier work"}, "[5]": {"system": "subjects undergoing transpositional osteotomy (bunionectomy) for hallux valgus deformity", "test": "Bunionectomy efficacy study (Phase II), intra-operative infiltration into the wound", "assay_type": "in vivo, human", "details": "for VAS pain score at operation site (Table 4): 1000 μg into wound, mean +/− SEM, n = 11", "protocol": "The primary efficacy endpoint was the proportion of subjects in each treatment group requiring opioid analgesia in the first 24 hours post-operatively. The proportions were compared amongst treatment groups using the Cochran-Haenszel test. Secondary efficacy end points included: i) proportion of subjects in each treatment group requiring opioid analgesia in the first 36 hour period post-operatively (Similarly, the proportions were compared amongst treatment groups using the Cochran-Haenszel test); ii) proportion of subjects in each treatment group requiring opioid analgesia in the 10 day period post-operatively (Similarly, the proportions were compared amongst treatment groups using the Cochran-Haenszel test); iii) time to first usage of opioid analgesia in each treatment group (a survival analysis approach will be used: the product-limit (Kaplan-Meier) method will be applied to time to first usage of opioid analgesia. The median time to first usage of opioid analgesia will be estimated in both treatment groups. Pairwise comparisons will be performed to test for equality of the survival curves between the 2 treatment groups using both the log-rank and the Wilcoxon test); iv) total usage of analgesia in each treatment group (the total usage of analgesia will be compared by an analysis of variance with treatment and center as independent variables. A pairwise comparison will be performed between the treatment groups); and v) VAS assessment of pain at the site of operation in each treatment group (The VAS score at each time point will be compared by an analysis of variance with treatment and center as independent variables. A pairwise comparison will be performed between the treatment groups). […] The efficacy analysis was performed on the data obtained ten days postoperatively. The safety analysis was performed based on the safety data for the entire study, including the 6 week and 12 week follow-up periods. The blind was broken at the time the efficacy analysis was performed. However, the individual treatment assignment was available to the statistical analysis group only. All other personnel involved in the study, including the Investigator, study monitor and proprietary staff, remained blinded until the entire study was completed.\nThe study was designed to include 40 evaluation subjects. […] Each subject had six (6) study visits: a Screening Day (Day −28 to −1), an Operation Day (Day 0), and four (4) Follow-up visits (scheduled for Days 3, 10 and weeks 6 and 12).\nOn Operation Day (Day 0) the following was performed: a) Pre-operation: Prior to the initiation of an ankle block, inclusion/exclusion criteria assessment was performed. […] Immediately prior to wound closure, the Investigator slowly dripped the study medication (4 mL) from a syringe into the wound, ensuring even tissue exposure. The wound was then closed according to normal practices and procedures.\nIn the 24 hours following administration of study medication, vital signs (supine pulse rate and blood pressure) were recorded at 1, 2, 4 and 24 hours post administration. VAS assessment of pain at the operation site was performed at 1, 4, 8, 12 and 24 hours post administration. In those instances where VAS measurements coincide with blood sampling procedures, the VAS assessment was performed first. […] The quantity of each blood sample was 10 mL. Laboratory safety assessments, e.g., haematology, biochemistry, urinalysis were performed at 24 hours post administration. Adverse events were spontaneously reported by the subject and recorded. Rescue analgesia medication was provided to the subject if required (initially diclofenac 50 mg, repeated at 8 hourly intervals if necessary)."}, "[6]": {"details": "10, 100, 300 μg intra-articular"}}, "note": "Where two headings read alike, the source gives them in different places."}
{"smiles": "C=C(C)[C@]12C[C@@H](C)[C@@]34O[C@](Cc5ccccc5)(O[C@@H]1[C@@H]3C=C(COC(=O)Cc1ccc(O)c(OC)c1)C[C@]1(O)C(=O)C(C)=C[C@@H]41)O2", "note": "[Resiniferatoxin, resiniferatoxin]", "values": [{"measurement": "potency compared with capsaicin", "setting": "[1]", "result": "10^3-10^4 fold"}]}
{"smiles": "COc1cc(CNC(=O)CCCC/C=C/C(C)C)ccc1O", "note": "[purified capsaicin, N-(4-hydroxy-3-methoxybenzyl)-8-methylnon-trans-6-enamide]", "values": [{"measurement": "patients reporting transient burning pain immediately following instillation", "setting": "[2]; 10 μg intra-articular", "result": "0 of 4"}, {"measurement": "subjects requiring intervention for post-injection (hyper)algesia", "setting": "[2]; 100 μg dose group (n=4)", "result": 1, "unit": "subject"}, {"measurement": "patients reporting transient burning pain immediately following instillation", "setting": "[2]; 100 μg intra-articular", "result": "1 of 4"}, {"measurement": "subjects requiring intervention for post-injection (hyper)algesia", "setting": "[2]; 300 μg dose group (n=4)", "result": 4, "unit": "subjects"}, {"measurement": "patients reporting transient burning pain immediately following instillation", "setting": "[2]; 300 μg intra-articular", "result": "4 of 4"}, {"measurement": "VAS reduced, prior to administration vs day of surgery", "setting": "[2]; 9 active patients of the 4, 7 and 14 day cohorts, doses 10-300 μg pooled", "result": "62±14", "unit": "%"}, {"measurement": "effects on laboratory safety parameters or vital signs", "setting": "[2]; [6]", "result": "no treatment related effects"}, {"measurement": "effects on soft tissue, cartilage, or bone upon histopathological examination", "setting": "[2]; [6]", "result": "no treatment related effects"}, {"measurement": "gross and microscopic pathology", "setting": "[2]; [6]", "result": "normal"}, {"measurement": "signs of erythema, edema, or hemorrhage at the site of injection", "setting": "[2]; [6]", "result": "no treatment related signs"}, {"measurement": "systemic side effects", "setting": "[2]; [6]", "result": "No treatment related systemic side effects were seen"}, {"measurement": "tolerability", "setting": "[2]; [6]", "result": "well tolerated at all dose levels"}, {"measurement": "median decrease from baseline to pre-operative time point in VAS for pain at the target knee, compared with placebo", "setting": "[2]; all 3 capsaicin dose groups", "result": "substantially greater"}, {"measurement": "average duration of post injection hyperalgesia", "setting": "[2]; all cases", "result": "less than thirty minutes"}, {"measurement": "onset of post-administration (hyper)algesia after administration", "setting": "[2]; all episodes, 100 μg and 300 μg", "result": "≤ 5", "unit": "min"}, {"measurement": "indication of efficacy on VAS pain", "setting": "[2]; any of the dose levels (10 μg, 100 μg, 300 μg)", "result": "No clear treatment related indication of efficacy"}, {"measurement": "radiation induced hyperalgesia", "setting": "[3]; final doses of 25 mg/kg or less prior to ultra violet radiation", "result": "prevented radiation induced hyperalgesia"}, {"measurement": "pain threshold", "setting": "[3]; final doses of 25 mg/kg or less", "result": "did not elevate the pain threshold above normal range"}, {"measurement": "pain threshold", "setting": "[3]; final doses of 50 mg/kg or greater", "result": "pain threshold elevated"}, {"measurement": "solubility in alcohol, ether, benzene and chloroform", "setting": "[4]", "result": "freely soluble"}, {"measurement": "effect on pain score and use of rescue", "setting": "[5]; 1000 μg into the wound prior to wound closure", "result": "reduced both pain score as well as the use of rescue"}, {"measurement": "VAS pain score at operation site (Table 4)", "setting": "[5]; 8 hr", "result": "5.5 +/− 2.3"}, {"measurement": "VAS pain score at operation site (Table 4)", "setting": "[5]; 12 hr", "result": "8.2 +/− 3.8"}, {"measurement": "VAS pain score at operation site (Table 4)", "setting": "[5]; 24 hr", "result": "1.9 +/− 1.0"}, {"measurement": "VAS pain score at operation site (Table 4)", "setting": "[5]; 48 hr", "result": "5.9 +/− 2.5"}, {"measurement": "study subjects requiring rescue", "setting": "[5]; 1000 μg prior to wound closure, within 72 hours, n=11, P<0.05 vs placebo", "result": 40, "unit": "%"}]}
